From ChEMBL document CHEMBL1128761, “Benzothiazolylthio carbapenems: potent anti-MRSA agents” (Bioorg Med Chem Lett, 1995) come the findings set out here.

Values after ≈ are worked out from the molar mass of the structure shown.

In experiment [1] the target is T1, Dipeptidase 1 (Sus scrofa) (UniProt P22412).
T1 sequence (whole entry): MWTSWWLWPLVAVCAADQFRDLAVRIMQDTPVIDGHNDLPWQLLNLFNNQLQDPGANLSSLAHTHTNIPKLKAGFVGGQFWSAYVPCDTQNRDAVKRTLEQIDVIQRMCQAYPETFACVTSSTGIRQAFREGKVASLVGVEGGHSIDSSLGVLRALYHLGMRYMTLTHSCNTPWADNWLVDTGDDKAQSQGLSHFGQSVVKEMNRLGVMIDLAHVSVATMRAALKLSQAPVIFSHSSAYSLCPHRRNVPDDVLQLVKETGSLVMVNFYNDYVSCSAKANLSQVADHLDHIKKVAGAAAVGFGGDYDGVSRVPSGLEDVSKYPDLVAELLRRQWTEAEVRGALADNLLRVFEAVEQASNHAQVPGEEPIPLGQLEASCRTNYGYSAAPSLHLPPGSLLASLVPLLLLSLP
Nature of the experiment: (§1) Susceptibility to DHP-I (swine kidney enzyme). It is filed as tissue-based.

Experiment [2] deals with Enterococcus. As to the kind of experiment: Inhibitory activity against enterococcus evaluated by computational method. It is filed as functional.
The subject of experiment [3] is Bacteria. Nature of the experiment: The gram-negative activity is derived from eleven strains selected from seven enteric genera. It is filed as functional. Conditions: Bacteria; read-out: MIC.
The target in experiment [4] is T2, MecA (Staphylococcus aureus, UniProt Q7DHH4).
T2 sequence (Q7DHH4 whole entry): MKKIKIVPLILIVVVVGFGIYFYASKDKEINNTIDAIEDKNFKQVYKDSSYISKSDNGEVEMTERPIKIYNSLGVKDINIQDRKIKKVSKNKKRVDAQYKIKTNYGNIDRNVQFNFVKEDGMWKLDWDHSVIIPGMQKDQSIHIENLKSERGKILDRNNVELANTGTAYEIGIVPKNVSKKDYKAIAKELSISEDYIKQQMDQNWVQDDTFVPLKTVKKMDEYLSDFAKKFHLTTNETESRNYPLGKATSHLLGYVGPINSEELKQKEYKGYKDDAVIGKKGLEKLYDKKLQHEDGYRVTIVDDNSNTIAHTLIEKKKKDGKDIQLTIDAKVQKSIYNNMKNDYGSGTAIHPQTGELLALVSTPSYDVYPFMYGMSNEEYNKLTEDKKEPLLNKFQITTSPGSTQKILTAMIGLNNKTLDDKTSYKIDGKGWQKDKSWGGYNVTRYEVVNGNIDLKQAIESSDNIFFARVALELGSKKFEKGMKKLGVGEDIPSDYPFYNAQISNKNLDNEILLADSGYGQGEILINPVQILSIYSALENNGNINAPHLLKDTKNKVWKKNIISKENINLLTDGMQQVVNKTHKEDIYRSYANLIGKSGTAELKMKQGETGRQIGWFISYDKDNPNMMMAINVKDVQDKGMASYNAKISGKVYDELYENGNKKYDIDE
As to the kind of experiment: Binding affinity towards Penicillin-binding protein 2a from homogeneous MRSA COL strain using [3H]-radioligand.

Experiment [5] deals with Staphylococcus aureus. As to the kind of experiment: Inhibitory activity against methicillin-sensitive staphylococcus aureus(MSSA). It is filed as functional.
The test system of experiment [6] is Staphylococcus aureus. As to the kind of experiment: Inhibitory activity against methicillin-resistant staphylococcus aureus(MRSA). It is filed as functional.
Experiment [7] is filed under the species Sus scrofa. The experiment is described as §1. It is filed as tissue-based.

One may read the MIC as the least concentration at which growth counts as inhibited. A word on the IC50: it is the midpoint of a concentration-inhibition curve. Low readings indicate higher potency, high ones lower potency. `C[C@@H](O)[C@H]1C(=O)N2C(C(=O)[O-])=C(Sc3nc4cc(Cl)ccc4s3)C[C@H]12.[Na+]` yielded a Susceptibility in experiment [1] of 1.2. In addition, the MIC stood at 0.7 µg/mL in experiment [2], 3.8 µg/mL in experiment [3], 0.02 µg/mL in experiment [5] and 1.8 µg/mL in experiment [6]. Besides, the IC50 in experiment [4] is 3.82 µM.

In experiment [7], `C[C@@H](O)[C@H]1C(=O)N2C(C(=O)[O-])=C(Sc3nc4c(C[n+]5ccn(C)c5)csc4s3)C[C@H]12` registered a Susceptibility of 0.2. Further, the MIC was determined as 2 µg/mL (≈ 4.32 µM) in experiment [2], 5.5 µg/mL (≈ 11.9 µM) in experiment [3], 0.02 µg/mL (≈ 0.0432 µM) in experiment [5] and 1 µg/mL (≈ 2.16 µM) in experiment [6]. Besides, the IC50 in experiment [4] is 0.649 µM.

`C[C@@H](O)[C@H]1C(=O)N2C(C(=O)[O-])=C(Sc3nc4cc(C(F)(F)F)ccc4s3)[C@H](C)[C@H]12.[Na+]`: the MIC in experiment [2] is 2.9 µg/mL; in experiment [3], 9.9 µg/mL; in experiment [5], 0.08 µg/mL; in experiment [6] it was 1.2 µg/mL. The compound further showed an IC50 in experiment [4] of 1.93 µM.

As for `C[C@@H](O)[C@H]1C(=O)N2C(C(=O)[O-])=C(Sc3nc4cc(Cl)ccc4s3)[C@H](C)[C@H]12.[Na+]`, the Susceptibility in experiment [1] was found to be 0.2. Moreover, the MIC was 2.7 µg/mL in experiment [2], 4.8 µg/mL in experiment [3], 0.02 µg/mL in experiment [5] and 0.8 µg/mL in experiment [6]. Besides, in experiment [4], the IC50 is 6.24 µM.

Turning to `COC(=O)c1cc2sc(SC3=C(C(=O)[O-])N4C(=O)[C@H]([C@@H](C)O)[C@H]4[C@H]3C)nc2o1.[Na+]`, the MIC in experiment [2] came out at 4 µg/mL; in experiment [3] it was 12.4 µg/mL; in experiment [5], 0.02 µg/mL; in experiment [6], 4 µg/mL. The same compound showed an IC50 in experiment [4] of 3.36 µM.

Turning to `C[C@@H](O)[C@H]1C(=O)N2C(C(=O)[O-])=C(Sc3nc(-c4ccccc4)cs3)[C@H](C)[C@H]12.[Na+]`, the Susceptibility in experiment [1] turned out to be 0.4. In addition, the MIC was found to be 2.6 µg/mL in experiment [2], 6.6 µg/mL in experiment [3], 0.05 µg/mL in experiment [5] and 1.9 µg/mL in experiment [6]. For the same compound, the concentration for half-maximal inhibition (IC50) in experiment [4] is 23.8 µM.

As to `C[C@@H](O)[C@H]1C(=O)N2C(C(=O)O)=C(SCCN=CN)C[C@H]12` [IMIPENEM ANHYDROUS], the IC50 in experiment [4] is 428 µM.

`C[C@@H](O)[C@H]1C(=O)N2C(C(=O)[O-])=C(Sc3nc4ccc(C#N)cc4s3)[C@H](C)[C@H]12.[Na+]` had a Susceptibility in experiment [1] of 0.1. Moreover, the MIC in experiment [2] was 4.5 µg/mL; in experiment [3] it was 8.8 µg/mL; in experiment [5], 0.04 µg/mL; in experiment [6] it was 0.9 µg/mL. In experiment [4], the IC50 was 3.78 µM.

On to `C[C@@H](O)[C@H]1C(=O)N2C(C(=O)[O-])=C(Sc3nc4cc(CO)ccc4s3)[C@H](C)[C@H]12.[Na+]`, for which the Susceptibility in experiment [1] came to 0.3. The MIC came to 3.8 µg/mL in experiment [2], 8 µg/mL in experiment [3], 0.07 µg/mL in experiment [5] and 1 µg/mL in experiment [6]. The compound also showed an IC50 in experiment [4] of 2.8 µM.

Consider `C[C@@H](O)[C@H]1C(=O)N2C(C(=O)[O-])=C(Sc3nc4ccc(Cl)cc4s3)[C@H](C)[C@H]12.[Na+]`, for which the MIC in experiment [2] is 4 µg/mL; in experiment [3], 17.6 µg/mL; in experiment [5], 0.1 µg/mL; in experiment [6], 2.3 µg/mL. The IC50 in experiment [4] was 2.08 µM.

As to `C[C@@H](O)[C@H]1C(=O)N2C(C(=O)[O-])=C(Sc3ncc(-c4ccccc4)s3)[C@H](C)[C@H]12.[Na+]`, the Susceptibility in experiment [1] was 0.5. The MIC in experiment [2] worked out at 8 µg/mL; in experiment [3], 16 µg/mL; in experiment [5] it was 0.03 µg/mL; in experiment [6], 32 µg/mL. The compound further gave a half-maximal inhibitory concentration (IC50) in experiment [4] of 236 µM.

As to `C[C@@H](O)[C@H]1C(=O)N2C(C(=O)[O-])=C(Sc3ncc4ccccc4n3)[C@H](C)[C@H]12.[Na+]`, the Susceptibility in experiment [1] worked out at 0.3. Further, the MIC was determined as 8 µg/mL in experiment [2], 15 µg/mL in experiment [3], 0.02 µg/mL in experiment [5] and 4 µg/mL in experiment [6]. Besides, the IC50 in experiment [4] was 30.2 µM.

In experiment [1], `C[C@@H](O)[C@H]1C(=O)N2C(C(=O)[O-])=C(Sc3cc4ccccc4s3)[C@H](C)[C@H]12.[Na+]` yielded a Susceptibility of 0.4. Further, the MIC in experiment [2] is 5.7 µg/mL; in experiment [3], 9.8 µg/mL; in experiment [5], 0.04 µg/mL; in experiment [6], 3.9 µg/mL. The compound further showed an IC50 in experiment [4] of 41.5 µM.

In turn, `C[C@@H](O)[C@H]1C(=O)N2C(C(=O)[O-])=C(Sc3nc4ccccc4s3)C[C@H]12.[Na+]` returned a Susceptibility in experiment [1] of 1.7. In addition, the MIC is 1.7 µg/mL in experiment [2], 3.7 µg/mL in experiment [3], 0.07 µg/mL in experiment [5] and 1.9 µg/mL in experiment [6]. For the same compound, the IC50 in experiment [4] is 8.06 µM.

In experiment [1], `C[C@@H](O)[C@H]1C(=O)N2C(C(=O)[O-])=C(Sc3nccs3)[C@H](C)[C@H]12.[Na+]` displayed a Susceptibility of 0.4. Further, the MIC was found to be 7.1 µg/mL in experiment [2], 2.5 µg/mL in experiment [3], 0.17 µg/mL in experiment [5] and 18.2 µg/mL in experiment [6]. This compound had an IC50 in experiment [4] of 33.6 µM.

Compound `COC(=O)c1csc2sc(SC3=C(C(=O)[O-])N4C(=O)[C@H]([C@@H](C)O)[C@H]4[C@H]3C)nc12.[Na+]` displayed a Susceptibility in experiment [1] of 0.3. Further, the MIC in experiment [2] was 4 µg/mL; in experiment [3] it was 21.9 µg/mL; in experiment [5], 0.04 µg/mL; in experiment [6], 2 µg/mL. This compound gave an IC50 in experiment [4] of 2.59 µM.

`C[C@@H](O)[C@H]1C(=O)N2C(C(=O)[O-])=C(Sc3nc4ccc([N+](=O)[O-])cc4s3)[C@H](C)[C@H]12.[Na+]` returned a Susceptibility in experiment [1] of 0.2. Also, the MIC is 4.9 µg/mL in experiment [2], 22.4 µg/mL in experiment [3], 0.05 µg/mL in experiment [5] and 1.1 µg/mL in experiment [6]. In addition, in experiment [4], the IC50 was 1.35 µM.

On to `C[C@@H](O)[C@H]1C(=O)N2C(C(=O)[O-])=C(Sc3ccc4ccccc4n3)[C@H](C)[C@H]12.[Na+]`, for which the minimal inhibitory concentration (MIC) in experiment [2] stood at 4.9 µg/mL; in experiment [3], 10.1 µg/mL; in experiment [5], 0.05 µg/mL; in experiment [6], 6.3 µg/mL. Moreover, the IC50 in experiment [4] was 71.4 µM.

The compound `C[C@@H](O)[C@H]1C(=O)N2C(C(=O)[O-])=C(Sc3nc4c(CO)csc4s3)[C@H](C)[C@H]12.[Na+]` displayed a Susceptibility in experiment [1] of 0.5. The minimal inhibitory concentration (MIC) in experiment [2] was 4 µg/mL; in experiment [3], 9.7 µg/mL; in experiment [5] it was 0.02 µg/mL; in experiment [6], 2 µg/mL. Besides, in experiment [4], the IC50 is 2.76 µM.

On to `C[C@@H](O)[C@H]1C(=O)N2C(C(=O)[O-])=C(Sc3nc4ccc(N)cc4s3)[C@H](C)[C@H]12.[Na+]`, for which the MIC came out at 5.9 µg/mL in experiment [2], 18.3 µg/mL in experiment [3], 0.09 µg/mL in experiment [5] and 9 µg/mL in experiment [6]. Further, the IC50 in experiment [4] is 40.6 µM.

As for `C[C@@H](O)[C@H]1C(=O)N2C(C(=O)[O-])=C(Sc3nc4ccccc4o3)[C@H](C)[C@H]12.[Na+]`, the MIC was found to be 8.9 µg/mL in experiment [2], 27.8 µg/mL in experiment [3], 0.23 µg/mL in experiment [5] and 12.1 µg/mL in experiment [6]. This compound also showed an IC50 in experiment [4] of 112 µM.

`C[C@@H](O)[C@H]1C(=O)N2C(C(=O)[O-])=C(Sc3nc(-c4ccccc4)cs3)C[C@H]12.[Na+]` registered a Susceptibility in experiment [1] of 3.6. Also, the MIC in experiment [2] was 2.1 µg/mL; in experiment [3] it was 14 µg/mL; in experiment [5], 0.03 µg/mL; in experiment [6], 11.3 µg/mL.

`CCOc1ccc2nc(SC3=C(C(=O)[O-])N4C(=O)[C@H]([C@@H](C)O)[C@H]4[C@H]3C)sc2c1.[Na+]` displayed a Susceptibility in experiment [1] of 0.3. The MIC in experiment [2] is 6 µg/mL; in experiment [3], 31.6 µg/mL; in experiment [5], 0.1 µg/mL; in experiment [6], 4 µg/mL. Also, the IC50 in experiment [4] is 10.6 µM.
